≈ marks a conversion by molar mass, not a printed value. Where “and” joins values, the source holds several entries; their conditions need not be identical. Identical values can stand only once. Like-named read-outs stand apart in the source and are kept apart here.
Legend:
P388 leukemia = experiment: In vivo activity against transplantable murine P388 leukemia in CDF1 mice; settings: for Survival d.5: day 5; for Med. Survival Time / % T/C: intraperitoneal; for Med. Survival Time: 5 consecutive days from day 1, control 11 d; for % T/C: 5 consecutive days, 125 or greater is significant
Protocol: The compound of Example 4 was also evaluated against transplantable murine P388 leukemia. CDF1 mice were implanted intraperitoneally with a tumor inoculum of 10^6 cells of P388 leukemia and treated with various doses of the test compound Six mice were used for each dose level and 10 mice were treated with saline to serve as control. The test compound was administered intraperitoneally on 5 consecutive days starting on day 1 after tumor implantation. Antitumor activity is expressed as % T/C which is the ratio of mean survival time (MST) for the drug-treated group to the MST of saline-treated control group.
A compound showing a % T/C of 125 or greater is considered to have significant antitumor activity.

DNA = settings: J. Org. Chem. 1989, 54:2781-2783; J. Am. Chem. Soc. 1989, 111:7638-7641; cited from earlier work
[1] = tested on: HCT-116 human colon tumor cell line; experiment: In vitro cytotoxicity assay; assay type: cell-based; settings: three determinations
Protocol: (§1) Compound of Example 4 was evaluated in vitro against three human colon tumor cell lines: HCT-116, HCT/VM46, and HCT/VP35; the latter two are resistant to teniposide and etoposide, respectively. The in vitro cytotoxicity assay involved growing tumor cells on microtitre plates employing established tissue culture methods. The concentration of the test compound required to inhibit cell growth by 50% (IC50) was then determined by four-fold serial dilution technique. In the experiment, etoposide and teniposide were included as positive controls.

[2] = tested on: HCT/VP35 human colon tumor cell line (etoposide-resistant); experiment: In vitro cytotoxicity assay; assay type: cell-based; settings: three determinations
Protocol: as §1

[3] = tested on: HCT/VM46 human colon tumor cell line (teniposide-resistant); experiment: In vitro cytotoxicity assay; assay type: cell-based; settings: three determinations
Protocol: as §1

[4] = Homo sapiens, HCT-116, HCT-116, read-out: IC50
[5] = Homo sapiens, HCT/VP35, HCT/VP35, read-out: IC50

Compound: 1-Hydroxy-8-[[(2-quinoxolyamino)carbonyl]oxy]-bicyclo[7.3.1]trideca-4,7-diene-2,6-divn-13-one [Example 8]
- max. %T/C (P388 leukemia; at 15 mg/kg/dose, same protocol): 145%

Compound: O=C1CC2C(=O)C(O)(C#CC=CC#CC2O)C1 (centres unmarked) [1,8-dihydroxy-bicyclo[7.3.1]tridec-4-ene-2,6-diyn-11,13-dione]
- DNA cleavage in vitro (DNA): shown to cleave DNA in vitro

Compound: COc1cc([C@@H]2c3cc4c(cc3[C@@H](O[C@@H]3O[C@@H]5CO[C@@H](C)O[C@H]5[C@H](O)[C@H]3O)[C@H]3COC(=O)[C@H]23)OCO4)cc(OC)c1O [Etoposide]
- IC50 ([1]; HCT-116): 0.128 µg/mL and 0.140 µg/mL
- IC50 [1, 4]: 0.101 µg/mL (≈ 0.172 µM)
- IC50 ([2]; HCT/VP35): 6.29 µg/mL and 6.75 µg/mL
- IC50 [2, 5]: 5.14 µg/mL (≈ 8.73 µM)

Compound: O=C1C2=CCCC1(O)C#CC=CC#CC2O (centres unmarked) [Example 4, 1,8-Dihydroxy-bicyclo7.3.1]trideca-4,9-diene-2,6-divn-13-one]
- IC50 ([1]; HCT-116): 0.037 µg/mL and 0.043 µg/mL and < 0.031 µg/mL
- IC50 [3]: < 0.031 µg/mL and 0.047 µg/mL
- IC50 ([2]; HCT/VP35): 0.042 µg/mL and 0.046 µg/mL and 0.072 µg/mL
- Survival d.5 (P388 leukemia; 1 mg/kg/dose): 6/6
- Med. Survival Time (P388 leukemia; 1 mg/kg/dose): 13 days
- % T/C (P388 leukemia; 1 mg/kg/dose): 118%
- Survival d.5 (P388 leukemia; 2 mg/kg/dose): 6/6
- Med. Survival Time (P388 leukemia; 2 mg/kg/dose): 16.5 days
- % T/C (P388 leukemia; 2 mg/kg/dose): 150%
- Survival d.5 (P388 leukemia; 4 mg/kg/dose): 6/6
- Med. Survival Time (P388 leukemia; 4 mg/kg/dose): 20.0 days
- % T/C (P388 leukemia; 4 mg/kg/dose): 182%
- Survival d.5 (P388 leukemia; 8 mg/kg/dose): 6/6
- number of surviving mice on day 39 (P388 leukemia; 8 mg/kg/dose, day 39): 4 mice
- Med. Survival Time (P388 leukemia; 8 mg/kg/dose): > 39 days
- % T/C (P388 leukemia; 8 mg/kg/dose): > 355%
- Survival d.5 (P388 leukemia; 16 mg/kg/dose): 6/6
- Med. Survival Time (P388 leukemia; 16 mg/kg/dose): 9.5 days
- % T/C (P388 leukemia; 16 mg/kg/dose): 86%
- Survival d.5 (P388 leukemia; 32 mg/kg/dose): 6/6
- Med. Survival Time (P388 leukemia; 32 mg/kg/dose): 7 days
- % T/C (P388 leukemia; 32 mg/kg/dose): 64%
- activity against P388 leukemia (P388 leukemia; conclusion from Table II): high activity against P388 leukemia

Compound: O=C(OC1C#CC=CC#CC2(O)CCC=C1C2=O)c1cnc2ccccc2n1 (centres unmarked) [Example 6]
- mouse surviving on day 31 (P388 leukemia; 20 mg/kg/dose, day 31): one
- maximum %T/C (P388 leukemia; at 20 mg/kg/dose, same protocol): 235%

Compound: O=C1C2=CCCC1(O)C#C/C=C\C#CC2 (centres unmarked) [Example 15, 1-Hydroxy-bicylco[7.3.1]trideca-4,9-diene-2,6-diyne-13-one]
- max. %T/C (P388 leukemia; at 40 mg/kg/dose, same protocol): 230%

Compound: COc1cc([C@@H]2c3cc4c(cc3[C@@H](O[C@@H]3O[C@@H]5CO[C@@H](c6cccs6)O[C@H]5[C@H](O)[C@H]3O)[C@H]3COC(=O)[C@H]23)OCO4)cc(OC)c1O [Teniposide]
- IC50 ([1]; HCT-116): 0.088 µg/mL and 0.083 µg/mL
- IC50 [1, 4]: 0.077 µg/mL (≈ 0.117 µM)
- IC50 ([3]; Homo sapiens, read-out: IC50): 0.313 µg/mL (≈ 0.477 µM)
- IC50 [3]: 0.237 µg/mL and 0.236 µg/mL
- IC50 ([2]; HCT/VP35): 0.091 µg/mL and 0.111 µg/mL
- IC50 [2, 5]: 0.084 µg/mL (≈ 0.128 µM)

From patent US5318989A, “Cytotoxic bicyclo [7.3.1.]tridec-4-ene-2,6-diyne compounds and process for the preparation thereof” (Bristol-Myers Squibb Company, priority 1992, dated 1994)
